This experiment has as its target human NaV 1.8 (Homo sapiens, UniProt Q9Y5Y9). In words: E-VIPR Assay Detecting and Measuring NaV Inhibition Properties. Format: cell-based. The conditions noted are these: HEK cells expressing a truncated form of human NaV 1.8; compound number without "*" (not marked as run in the presence of human serum). From the text:
Sodium ion channels are voltage-dependent proteins that can be activated by inducing membrane voltage changes by applying electric fields. The electrical stimulation instrument and methods of use, referred to as E-VIPR, are described in International Publication No. WO 2002/008748 A3 and C.-J. Huang et al. Characterization of voltage-gated sodium channel blockers by electrical stimulation and fluorescence detection of membrane potential, 24 Nature Biotech. 439-46 (2006), both of which are incorporated by reference in their entirety. The instrument comprises a microtiter plate handler, an optical system for exciting the coumarin dye while simultaneously recording the coumarin and oxonol emissions, a waveform generator, a current- or voltage-controlled amplifier, and parallel electrode pairs that are inserted into assay plate wells. Under integrated computer control, this instrument passes user-programmed electrical stimulus protocols to cells within the wells of the microtiter plate.
16-20 hours prior to running the assay on E-VIPR, HEK cells expressing a truncated form of human NaV 1.8 with full channel activity were seeded into microtiter 384-well plates, pre-coated with matrigel, at a density of 25,000 cells per well. 2.5-5% KIR2.1 Bacmam virus was added to the final cell suspension before seeding into cell plates. HEK cells were grown in Dulbecco's Modified Eagle's Medium (DMEM) supplemented with 10% FBS (Fetal Bovine Serum, qualified; Sigma #F4135), 1% NEAA (Non-Essential Amino Acids, Gibco #11140), 1% HEPES (Gibco #15630), 1% Pen-Strep (Penicillin-Streptomycin; Gibco #15140) and 5 μg/ml Blasticidin (Gibco #R210-01). Cells were expanded in vented cap cell culture flasks, with 90-95% humidity and 5% CO2.
Reagents and Stock Solutions:
• 100 mg/mL Pluronic F-127 (Sigma #P2443), in dry DMSO • Compound Plates: Corning 384-well Polypropylene Round Bottom #3656 • Cell Plates: 384-well tissue culture treated plates (Greiner #781091-2B)
2.5-5% KIR 2.1 Bacmam virus (produced in-house), prepared as described in Section 3.3 of J. A. Fornwald et al., Gene Expression in Mammalian Cells Using BacMam, a Modified Baculovirus System, 1350 Methods in Molecular Biology 95-116 (2016), the entire contents of which are incorporated by reference. The concentration used can be dependent on viral titer of each batch.
5 mM DiSBAC6(3), a voltage sensitive oxonol acceptor (CAS number 169211-44-3; 5-[3-(1,3-dihexylhexahydro-4,6-dioxo-2-thioxo-5-pyrimidinyl)-2-propen-1-ylidene]-1,3-dihexyldihydro-2-thioxo-4,6(1H,5H)-pyrimidinedione), in dry DMSO. The preparation of DiSBAC6(3) is analogous to that of DiSBAC4(3) as described in Voltage Sensing by Fluorescence Resonance Energy Transfer in Single Cells, Gonzalez, J. E. and Tsien, R. Y. (1995) Biophys. J. 69, 1272-1280.
5 mM CC2-DMPE, a commercially available membrane-bound coumarin phospholipid FRET donor (ThermoFisher Scientific catalog number K1017, CAS number 393782-57-5; tetradecanoic acid, 1,1′-[(1R)-1-[8-(6-chloro-7-hydroxy-2-oxo-2H-1-benzopyran-3-yl)-3-hydroxy-3-oxido-8-oxo-2,4-dioxa-7-aza-3-phosphaoct-1-yl]-1,2-ethanediyl] ester) was prepared in dry DMSO. See also, Improved indicators of cell membrane potential that use fluorescence resonance energy transfer, Gonzalez, J. E. and Tsien, R. Y. (1997) Chem. Biol. 4, 269-277.
Voltage Assay Background Suppression Compound (VABSC-1) is prepared in H2O (89-363 mM, range used to maintain solubility)
Human Serum (HS, Millipore #S1P1-01KL, or Sigma SLBR5469V and SLBR5470V as a 50%/50% mixture, for 25% assay final concentration)
• Sodium Chloride 160 mM (9.35 g/L), Potassium Chloride, 4.5 mM (0.335 g/L), Glucose 10 mM (1.8 g/L), Magnesium Chloride (Anhydrous) 1 mM (0.095 g/L), Calcium Chloride 2 mM (0.222 g/L), HEPES 10 mM (2.38 g/L) in water. […]

Sequence of human NaV 1.8 (Q9Y5Y9 126-1722 limits assumed): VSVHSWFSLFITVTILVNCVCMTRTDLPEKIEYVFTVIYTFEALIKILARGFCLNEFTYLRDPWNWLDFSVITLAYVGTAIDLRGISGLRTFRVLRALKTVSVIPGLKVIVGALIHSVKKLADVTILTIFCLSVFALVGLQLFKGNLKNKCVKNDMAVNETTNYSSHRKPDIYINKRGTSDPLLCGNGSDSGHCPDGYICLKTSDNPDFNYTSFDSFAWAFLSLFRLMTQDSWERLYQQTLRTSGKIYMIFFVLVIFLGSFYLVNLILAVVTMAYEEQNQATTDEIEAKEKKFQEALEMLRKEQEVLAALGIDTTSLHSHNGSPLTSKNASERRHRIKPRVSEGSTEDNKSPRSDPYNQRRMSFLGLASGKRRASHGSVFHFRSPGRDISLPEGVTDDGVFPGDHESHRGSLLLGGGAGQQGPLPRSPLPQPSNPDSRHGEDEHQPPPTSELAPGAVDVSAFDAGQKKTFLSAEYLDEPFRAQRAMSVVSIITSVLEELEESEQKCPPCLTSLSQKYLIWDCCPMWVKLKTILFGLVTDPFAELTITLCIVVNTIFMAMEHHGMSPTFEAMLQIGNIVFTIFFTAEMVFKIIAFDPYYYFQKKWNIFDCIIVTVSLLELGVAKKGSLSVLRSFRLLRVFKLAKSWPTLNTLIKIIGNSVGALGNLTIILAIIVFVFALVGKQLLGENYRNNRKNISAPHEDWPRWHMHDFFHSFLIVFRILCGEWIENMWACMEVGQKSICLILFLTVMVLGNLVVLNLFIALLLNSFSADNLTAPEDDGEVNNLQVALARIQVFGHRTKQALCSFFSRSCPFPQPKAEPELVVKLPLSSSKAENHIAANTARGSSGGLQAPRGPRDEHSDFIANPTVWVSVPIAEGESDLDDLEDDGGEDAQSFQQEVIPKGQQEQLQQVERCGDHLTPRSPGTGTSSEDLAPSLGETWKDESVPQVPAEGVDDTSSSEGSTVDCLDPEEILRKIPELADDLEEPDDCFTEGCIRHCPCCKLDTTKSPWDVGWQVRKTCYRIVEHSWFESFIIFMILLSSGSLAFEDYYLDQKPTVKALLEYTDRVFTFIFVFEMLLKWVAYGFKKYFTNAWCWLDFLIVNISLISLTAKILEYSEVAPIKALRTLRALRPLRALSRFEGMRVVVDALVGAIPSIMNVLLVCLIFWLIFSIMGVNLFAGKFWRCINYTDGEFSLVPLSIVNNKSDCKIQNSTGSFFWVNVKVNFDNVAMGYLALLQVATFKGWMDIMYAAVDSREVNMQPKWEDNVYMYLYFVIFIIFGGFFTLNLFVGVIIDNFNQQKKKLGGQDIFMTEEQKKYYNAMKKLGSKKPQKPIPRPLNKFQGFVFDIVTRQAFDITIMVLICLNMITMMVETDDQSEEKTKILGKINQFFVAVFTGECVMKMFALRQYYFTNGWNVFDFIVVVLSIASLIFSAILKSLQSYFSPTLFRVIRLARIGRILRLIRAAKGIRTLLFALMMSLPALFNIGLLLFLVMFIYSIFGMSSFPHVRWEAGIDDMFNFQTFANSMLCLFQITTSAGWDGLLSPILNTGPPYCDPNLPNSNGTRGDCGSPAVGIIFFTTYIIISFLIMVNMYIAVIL

In the case of `COc1c([C@@H]2[C@H](OC(C)C)[C@H](C)O[C@H]2C(=O)Nc2ccc([C@@H](O)CO)nc2)ccc(F)c1F` [Compound 16, (2R,3R,4S,5S)-3-(3,4-difluoro-2-methoxyphenyl)-N-(6-((R)-1,2-dihydroxyethyl)pyridine-3-yl)-4-isopropoxy-5-methyltetrahydrofuran-2-carboxamide], the concentration for half-maximal inhibition (IC50) was at least 1000 nM.
With `COc1c([C@@H]2[C@H](OC(C)C)[C@H](C)O[C@H]2C(=O)Nc2ccc(CO)nc2)ccc(F)c1F` [Compound 17, (2R,3R,4S,5S)-3-(3,4-difluoro-2-methoxyphenyl)-N-(6-(hydroxymethyl)pyridin-3-yl)-4-isopropoxy-5-methyltetrahydrofuran-2-carboxamide] the figure was at least 1000 nM; with `COc1c([C@@H]2[C@H](OC)[C@H](C(C)C)O[C@H]2C(=O)Nc2ccnc(C(N)=O)c2)ccc(F)c1F` [Compound 24, 4-((2R,3R,4S,5S)-3-(3,4-difluoro-2-methoxyphenyl)-5-isopropyl-4-methoxytetrahydrofuran-2-carboxamido)picolinamide], under 10 nM; with `CCO[C@H]1[C@@H](c2ccc(F)c(F)c2OC)[C@H](C(=O)Nc2ccnc(C(N)=O)c2)O[C@@]1(C)C(F)(F)F` [Compound 25, 4-((2R,3R,4S,5R)-3-(3,4-difluoro-2-methoxyphenyl)-4-ethoxy-5-methyl-5-(trifluoromethyl)tetrahydrofuran-2-carboxamido)picolinamide], under 10 nM.

For orientation: IC50 means the concentration that inhibits the measured activity by half.

The values above are taken from patent US12662470B2, “Hydroxy and (halo)alkoxy substituted tetrahydrofurans as modulators of sodium channels” (VERTEX PHARMACEUTICALS INCORPORATED, priority 2021, dated 2026).
